Experiments:
CYP2A6 = biological target: T1, CYP2A6 (Homo sapiens, UniProt P11509); test: Inhibition of recombinant CYP2A6 (probe coumarin); format: in vitro ADME; settings: recombinant isozyme; mean ± SD of triplicate; unit not given (IC50 classes in μM); read-out: IC50 towards CYP2A6
T1 sequence (P11509 1-494): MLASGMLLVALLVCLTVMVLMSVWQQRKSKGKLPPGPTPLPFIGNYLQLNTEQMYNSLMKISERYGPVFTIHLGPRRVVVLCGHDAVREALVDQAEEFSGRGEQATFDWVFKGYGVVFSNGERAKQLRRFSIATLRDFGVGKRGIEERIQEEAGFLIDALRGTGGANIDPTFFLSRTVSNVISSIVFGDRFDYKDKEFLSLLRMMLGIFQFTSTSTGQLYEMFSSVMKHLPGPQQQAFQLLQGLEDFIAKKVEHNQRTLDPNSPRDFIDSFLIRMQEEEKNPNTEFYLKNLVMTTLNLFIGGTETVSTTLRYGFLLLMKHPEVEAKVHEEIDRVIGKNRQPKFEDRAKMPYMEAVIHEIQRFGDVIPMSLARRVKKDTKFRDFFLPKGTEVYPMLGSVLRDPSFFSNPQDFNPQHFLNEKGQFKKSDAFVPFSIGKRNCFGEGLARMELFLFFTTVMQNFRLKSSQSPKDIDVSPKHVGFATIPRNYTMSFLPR
Description: (§1) In this study, phenacetin (100 μM), coumarin (100 μM), bupropion (100 μM), paclitaxel (60 μM), tolbutamide (200 μM), mephenytoin (100 μM), chlorzoxazone (200 μM) and nifedipine (40 μM) have been used as the probe substrates for CYP1A2, 2A6, 2B6, 2C8, 2C9, 2C19, 2E1 and 3A4, respectively.

CYP2C9 = CYP2C9 (Homo sapiens, UniProt P11712); test: Inhibition of recombinant CYP2C9 (probe tolbutamide); format: in vitro ADME; settings: recombinant isozyme; mean ± SD of triplicate; unit not given (IC50 classes in μM); read-out: IC50 towards CYP2C9
Description: as §1

[1] = Urinary (renal) excretion in rats after a 30-min infusion of Kang-Ai injection; format: in vivo, Sprague–Dawley rats; settings: Kang-Ai injection 6 mL/kg iv
In short: (§2)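 Urine collected in metabolic cages at 0–4, 4–8, 8–12 h and bile at 0–3, 3–6, 6–9, 9–12 h after infusion start, weighed and frozen at −80 °C. Non-compartmental analysis; CLR and CLB as cumulative urinary or biliary amount divided by plasma AUC0-∞, fe-U and fe-B as cumulative amount/dose; mean ± SD (n = 3).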

[2] = Biliary (hepatobiliary) excretion in rats after a 30-min infusion of Kang-Ai injection; format: in vivo, Sprague–Dawley rats; settings: rat bile 0–12 h; Kang-Ai injection 6 mL/kg iv
In short: as §2

CYP3A4 = CYP3A4 (Homo sapiens, UniProt P08684); test: Inhibition of recombinant CYP3A4 (probe nifedipine); format: in vitro ADME; settings: recombinant isozyme; mean ± SD of triplicate; unit not given (IC50 classes in μM); read-out: IC50 towards CYP3A4
Description: as §1

[3] = Stability tests of analytes in rat plasma QC samples; format: in vitro ADME; settings: rat plasma
Description: […] The dilution integrity was investigated by analyzing six replicate samples with each analyte, and each analyte were diluted 10-fold with blank rat matrix. Furthermore, the diluted samples were analyzed using freshly prepared calibration curve to calculate RE and RSD, which should be no more than ± 15% as criterion.

[4] = Plasma pharmacokinetics in rats after a 30-min intravenous infusion of Kang-Ai injection; format: in vivo, Sprague–Dawley rats; settings: male, Sprague-Dawley, rat, in vivo, iv
In short: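 Fasted male Sprague–Dawley rats (250 ± 20 g) got a single 30-min tail-vein infusion of Kang-Ai injection at 6 mL/kg. Jugular blood was sampled from 5 min to 12 h for plasma. Parameters came from non-compartmental analysis (trapezoidal AUC), n = 3.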

Chain of CYP3A4 (P08684 whole entry): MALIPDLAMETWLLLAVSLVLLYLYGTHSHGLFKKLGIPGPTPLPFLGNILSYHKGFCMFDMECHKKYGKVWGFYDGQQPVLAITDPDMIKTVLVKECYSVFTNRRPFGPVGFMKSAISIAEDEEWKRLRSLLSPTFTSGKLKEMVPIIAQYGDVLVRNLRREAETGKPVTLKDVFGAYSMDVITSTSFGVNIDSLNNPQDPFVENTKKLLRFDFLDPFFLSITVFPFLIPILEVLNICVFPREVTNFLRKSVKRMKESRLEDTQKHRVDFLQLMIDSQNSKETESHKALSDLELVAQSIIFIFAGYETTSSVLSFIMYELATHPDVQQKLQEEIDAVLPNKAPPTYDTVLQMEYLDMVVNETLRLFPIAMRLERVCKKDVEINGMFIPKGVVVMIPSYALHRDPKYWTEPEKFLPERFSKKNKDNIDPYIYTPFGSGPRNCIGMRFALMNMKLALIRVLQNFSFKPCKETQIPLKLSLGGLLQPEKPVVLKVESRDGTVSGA
Chain of CYP2C9 (P11712 whole entry): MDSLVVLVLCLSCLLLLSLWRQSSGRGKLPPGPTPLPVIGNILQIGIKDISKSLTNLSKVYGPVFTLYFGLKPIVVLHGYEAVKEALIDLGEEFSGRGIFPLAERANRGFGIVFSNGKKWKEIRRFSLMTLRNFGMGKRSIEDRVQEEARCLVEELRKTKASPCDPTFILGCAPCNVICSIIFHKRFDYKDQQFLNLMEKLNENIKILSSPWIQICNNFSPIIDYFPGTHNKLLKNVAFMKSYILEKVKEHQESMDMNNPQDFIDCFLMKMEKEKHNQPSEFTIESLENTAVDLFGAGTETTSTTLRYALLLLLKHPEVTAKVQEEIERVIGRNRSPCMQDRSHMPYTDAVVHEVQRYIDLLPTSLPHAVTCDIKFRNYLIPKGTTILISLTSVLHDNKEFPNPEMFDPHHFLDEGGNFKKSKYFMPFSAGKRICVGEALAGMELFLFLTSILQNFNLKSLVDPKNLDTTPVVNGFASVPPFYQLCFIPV

With `CC(C)=CCC[C@](C)(O)[C@H]1CC[C@]2(C)[C@@H]1[C@H](O)C[C@@H]1[C@@]3(C)CC[C@H](O)C(C)(C)[C@@H]3[C@@H](O[C@@H]3O[C@H](CO)[C@@H](O)[C@H](O)[C@H]3O[C@@H]3O[C@H](CO)[C@@H](O)[C@H](O)[C@H]3O)C[C@]12C` [Compound C7, Ginsenoside Rf] the IC50 (CYP2A6) was greater than 100 µM, the IC50 (CYP2C9) was greater than 100 µM and the CL renal ([1]; male, Sprague-Dawley, urine and plasma, rat, read-out: CLR (renal excretory clearance) (converted)) was 0.322 mL/min. For the same compound, the “fe-U,0–12h (fraction of dose excreted into urine)” value ([1]; rat urine 0–12 h) was 17.77 ± 3.90%, the “fe-B,0–12h (fraction of dose excreted into bile)” value [2] was 13.12 ± 1.68% and the IC50 (CYP3A4) was greater than 100 µM. For the same compound, the “At -80 °C for 48 h, Mean±SD” value ([3]; nominal conc. 20 nM) was 21.60 ± 0.37 nM, the “At -80 °C for 48 h, RE” value ([3]; nominal conc. 20 nM) was 9.41% and the “Extracted samples at 8 °C for 18 h, Mean±SD” value (shortened to “Extracted samples … Mean±SD”) ([3]; nominal conc. 20 nM) was 19.73 ± 2.64 nM. For the same compound, the “Extracted samples at 8 °C for 18 h, RE” value ([3]; nominal conc. 20 nM) was 13.56%, the “Short-term stability at room temperature for 6 h, Mean±SD” value (“Short-term stability … Mean±SD” for short) ([3]; nominal conc. 20 nM) was 20.44 ± 2.11 nM and the “Short-term stability at room temperature for 6 h, RE” value (“Short-term stability … for 6 h, RE” for short) ([3]; nominal conc. 20 nM) was 11.15%. For the same compound, the “Three freeze-thaw cycles (-80 °C ↔ 23 °C), Mean±SD” value (shortened to “Three freeze-thaw cycles … Mean±SD”) ([3]; nominal conc. 20 nM) was 22.07 ± 0.56 nM, the “Three freeze-thaw cycles (-80 °C ↔ 23 °C), RE” value ([3]; nominal conc. 20 nM) was 13.46% and the “At -80 °C for 48 h, Mean±SD” value ([3]; nominal conc. 100 nM) was 100.58 ± 11.11 nM. The “At -80 °C for 48 h, RE” value ([3]; nominal conc. 100 nM) was 13.37%, the “Extracted samples … Mean±SD” value ([3]; nominal conc. 100 nM) was 93.83 ± 2.15 nM and the “Extracted samples at 8 °C for 18 h, RE” value ([3]; nominal conc. 100 nM) was -8.56%. For the same compound, the “Short-term stability … Mean±SD” value ([3]; nominal conc. 100 nM) was 96.37 ± 9.64 nM, the “Short-term stability … for 6 h, RE” value ([3]; nominal conc. 100 nM) was -10.30% and the “Three freeze-thaw cycles … Mean±SD” value ([3]; nominal conc. 100 nM) was 101.34 ± 13.26 nM. For the same compound, the “Three freeze-thaw cycles (-80 °C ↔ 23 °C), RE” value ([3]; nominal conc. 100 nM) was -13.01%, the “At -80 °C for 48 h, Mean±SD” value ([3]; nominal conc. 400 nM) was 428.42 ± 28.06 nM and the “At -80 °C for 48 h, RE” value ([3]; nominal conc. 400 nM) was 14.40%. The “Extracted samples … Mean±SD” value ([3]; nominal conc. 400 nM) was 392.21 ± 39.26 nM, the “Extracted samples at 8 °C for 18 h, RE” value ([3]; nominal conc. 400 nM) was -12.43% and the “Short-term stability … Mean±SD” value ([3]; nominal conc. 400 nM) was 357.16 ± 4.75 nM. The “Short-term stability … for 6 h, RE” value ([3]; nominal conc. 400 nM) was -11.69%, the “Three freeze-thaw cycles … Mean±SD” value ([3]; nominal conc. 400 nM) was 398.07 ± 39.06 nM and the “Three freeze-thaw cycles (-80 °C ↔ 23 °C), RE” value ([3]; nominal conc. 400 nM) was -10.52%. The Cmax [4] was 943 ± 172 nM, the clearance [4] was 1.82 mL/min and the half-life [4] was 37.8 ± 18.6 min.
